Results: patent US12016860B2, “Combination therapies with Cbl-b inhibitor compounds” (Nurix Therapeutics, Inc., priority 2021, dated 2024)

How the values were obtained:
[1] = test system: total primary human T-cells; assay: IL-2 and IFN-γ release (ELISA) from stimulated primary human T-cells; format: cell-based; conditions: primary human T-cells stimulated with anti-CD3, with and without CD28 co-stimulation; lesser degree without co-stimulation
Experimental: Cells were stimulated with plate bound anti-CD3 (right) or anti-CD3/anti-CD28 (left) in the presence or absence of the indicated concentration of compound 23. Release of IL-2 or IFN-γ were assessed by ELISA. Compound 23 inhibition of Cbl-b enhanced IL-2 and IFN-γ secretion in primary human T-cells stimulated with anti-CD3 antibodies, in both the presence and absence of CD28 co-stimulation, although to a lesser degree in the absence of co-stimulation.

[2] = test system: CT26 tumors; assay: CT26 tumor volume in mice, single agent oral dosing; format: in vivo; conditions: oral administration in mice; colon carcinoma model CT26
Experimental: Mice bearing tumors on their left and right flanks were treated from Day 7 to Day 32 with oral compound 23 at 10 mg/kg (blue circles) or 30 mg/kg (red circles) or vehicle (black squares). Volumes at Day 25 are indicated. Statistics were calculated with one-way ANOVA and Dunn's multiple comparisons test **P≤0.01.

[3] = test system: orthotopic 4T1 tumors; assay: Orthotopic 4T1 model, combination with anti-PD-1 antibody; format: in vivo, mice
Experimental: This example provides assays and results for treating tumor models in vivo with combinations of Cbl-b compounds and anti-PD1 antibodies as described herein. The antibody is a mouse anti-PD1 RMP1-14 antibody, useful in mouse in vivo assays as model for administration of human PD-1 axis antagonists for treatment of human cancer.
Beginning on Day 9, tumor volumes and body weights were measured twice weekly. […] Statistical significance of differences in the number of colonies between groups was evaluated using Kruskal-Wallis one-way ANOVA with Dunn's multiple comparisons test.

[4] = test system: CT26 tumors; assay: Flow cytometry of tumor-infiltrating immune cells in CT26 tumors; format: in vivo, mice
Experimental: CT26 tumors were harvested after 19 doses of compound 23 or vehicle and tumor-infiltrating immune cell density and phenotype was assessed by flow cytometry.

[5] = test system: BT549 (BRCA wild type) cells; assay: Caspase 3/7 apoptosis Incucyte assay with olaparib, BT549; format: cell-based; conditions: 1 μM compound 23, 0.05 μM olaparib, vs 0.05% DMSO, combination also vs single agents p<0.0001
Experimental: (§1) BT549 (BRCA wild type) (A) and DoTc 4510 (BRCA2 mutated) (B) cells were seeded in duplicate into tissue culture treated black-sided, clear-bottom 96-well plates at 5,000^cells/well and allowed to adhere and establish for 24 h. Cells were treated with indicated concentrations of DMSO, compound 23, or Olaparib (FIGS. 13A and 13B) either alone or in combination and were labelled with 1× Essen Bioscience IncuCyte® Caspase-3/7 Green Reagent (final concentration 5 μM). Treated plates were imaged every 2 hours for 72 hours with the IncuCyte® S3 Live-Cell Analysis System. At each timepoint, one image per well was taken in both brightfield and FITC channels on the IncuCyte® S3 Live-Cell Analysis System. Images were analyzed for number of green objects per mm^2 using the IncuCyte S3 v2017A software.
Using a caspase 3/7 apoptosis Incucyte assay, the effect of compound 23, PARPi and the combination of compound 23, and PARPi on tumor cell apoptosis was assessed in both BRCA wild type and mutated tumor cell lines in vitro.

[6] = test system: DoTc 4510 (BRCA2 mutated) cells; assay: Caspase 3/7 apoptosis Incucyte assay with olaparib, DoTc 4510; format: cell-based; conditions: vs 0.05% DMSO, combination also vs single agents p<0.0001
Experimental: as §1

[7] = test system: BT549 tumor cell line; assay: Caspase 3/7 apoptosis Incucyte assay with paclitaxel, BT549; format: cell-based; conditions: 0.1 μM compound 23, 0.002 μM paclitaxel, vs 0.05% DMSO, combination also vs single agents p<0.0001
Experimental: as §1, with “BT549” for “BT549 (BRCA wild type) (A) and DoTc 4510 (BRCA2 mutated) (B)”, “5,000 ^cells/well” for “5,000^cells/well”, “with” for “with indicated concentrations of”, “Paclitaxel” for “Olaparib (FIGS. 13A and 13B)”, “48” for “72”
Using a caspase 3/7 apoptosis Incucyte® assay, the effect of compound 23, paclitaxel and the combination of compound 23 and paclitaxel on tumor cell apoptosis was assessed in the BT549 tumor cell line (a mammary gland carcinoma) in vitro.

SMILES: C[C@H]1CCCN(Cc2cc3c(c(C(F)(F)F)c2)CN(c2cccc([C@]4(c5nncn5C)C[C@@H](C)C4)c2)C3=O)C1 [compound 23]
- IFN-γ secretion [1]: enhanced
- IL-2 secretion [1]: enhanced
- anti-tumor activity [2]: significant anti-tumor activity
- interaction with PD-1 antibody blockade [3]: synergizes
- metastatic lung tumor burden ([3]; lungs harvested Day 28, single agents vs vehicle, combination vs vehicle or either single agent): reduced metastatic lung tumor burden
- primary tumor volume ([3]; single agents vs vehicle, combination vs vehicle or either single agent): significantly smaller primary tumors
- CD8+ T-cells to Tregs ratio ([4]; 19 doses): increased
- CD8+ effector T-cells (PD1+) to Tregs ratio ([4]; 19 doses): increased
- frequency of CD8+ T-cells that express the activation marker CD29 ([4]; 19 doses): increased
- frequency of total CD3+ T-cells as a percentage of CD45+ leukocytes ([4]; 19 doses): increased
- frequency of total CD8+ T-cells as a percentage of CD45+ leukocytes ([4]; 19 doses): increased
- frequency of tumor-infiltrating NK cells with cytotoxic phenotype (Granzyme+) ([4]; 19 doses): increased
- number of total CD8+ T-cells per gram of tumor ([4]; 19 doses): increased
- number of tumor-infiltrating leukocytes (TIL) per gram of tumor ([4]; 19 doses 30 mg/kg daily PO): increased
- tumor cell apoptosis (caspase 3/7) [5]: did not undergo a significant increase in apoptosis
- tumor cell apoptosis (caspase 3/7) [6]: did not significantly increase tumor cell apoptosis
- tumor cell apoptosis (caspase 3/7) [7]: did not undergo a significant increase in apoptosis
